Like-named read-outs stand apart in the source and are kept apart here.
Experiments:
[1] = tested on: Caki2; experiment: Proliferation dose-response IC50, Caki2; type: cell-based; conditions: Homo sapiens, CAKI-2; proliferative IC50, linear regression modeling of dose-response
Method: (§1) Error bars indicate standard deviation for n=2 replicates. […] To evaluate inhibition of SCD1 by these molecules, we used LC/MS to quantify changes in SCD1-catalyzed conversion of stearoyl-CoA to oleoyl-CoA in response to drug treatments in vitro using SCD1 protein extracted from murine liver (Figure 3c, Supplementary Figure 2g). […] Synthesis routes and spectral data including NMR and MS are also provided (Supplementary Figures 3-6).
(§2) Cells were seeded at 5,000 cells/well in clear-bottom 96-well plates in triplicate. Drug treatment was applied at 1:1000 in reduced serum conditions (3%). […] Alternatively, cells were plated 2x10^5/well in 12-well plates (Genesee Scientific) in triplicate prior to drug treatment. After 120-hour treatment, cell number was established using a Coulter Particle Counter (Beckman). Oleic acid-albumin (Sigma Aldrich) was added to media at 5µM, and was applied adjuvant to drug treatment. Drug stocks were prepared in DMSO (Sigma) at 1000x. IC50 dosing per cell line was calculated using CalcuSyn analytical software.

[2] = tested on: 468 known kinases; experiment: Kinome scan (binding)
Source text: Induction of the unfolded protein response (UPR) is a known biological response to SCD1 inhibition in tumor cells. […] The addition of exogenous OA was sufficient to reverse the activation of ATF6 (Figure 4b). Moreover, exogenous OA inhibited SSI-(1-4) mediated upregulation of the UPR markers BiP (heat shock 70 kDa protein) and CHOP (damage inducible transcript 3) protein levels in both A498 and ACHN cells (Figure 4c). Collectively these findings confirm that SSI-(1-4) reliably recapitulates the biological responses observed in tumor cells treated with known SCD1 inhibitors. […] Thus, SSI-4 is not predicted to have any major off-target effects through kinase inhibition (Supplementary Figures 7 and 8). […]
of PLS factors. T-value filter (t-value < 2.0) was used to eliminate independent variables overly sensitive to incremental changes from the training set. For structural components, both atom-based and pharmacophore features based were examined.
The regression with m PLS factors, fitted to activities is given as: […]
i =1 , where m = number of PLS factors, b is regression coefficient, vector y represents activity values in the training set. […]
A final Z-filtering mechanism was applied to reduce the dataset to a few select compounds for synthesis and experimental screening by using combined normalized scoring. The final Z-score for each compound was determined as: […]

[3] = tested on: 4 ccRCC cell lines; experiment: High-throughput proliferative screen, single point; conditions: in at least 2/4 ccRCC cell lines
Source text: Using linear regression modeling generated from dose-response curves, proliferative inhibitory concentrations (IC50) of these 5 compounds were established (Figure 3b, Supplementary Figure 2b-2f).
(a) High-throughput proliferative screen
of known and novel SCD1 inhibitors in ccRCC cell lines. Dashed line represents a 40% decrease in proliferation as compared to DMSO
included as a known SCD1 inhibitor. Compounds labeled with an asterisk (*) are single-blinded known SCD1 inhibitors. (b-f) Dose-
the proliferative dose-response line graph.

[4] = tested on: ACHN; experiment: Proliferation dose-response IC50, ACHN; type: cell-based; conditions: Homo sapiens, proliferative IC50, linear regression modeling of dose-response
Method: as §1, §2

[5] = tested on: Caki1; experiment: Proliferation dose-response IC50, Caki1; type: cell-based; conditions: Homo sapiens, CAKI-1; proliferative IC50, linear regression modeling of dose-response
Method: as §1, §2

[6] = Seven-day oral toxicology study (body weight, serum chemistry); type: in vivo, Sprague Dawley rats
Method: . […] Chronic treatment at the highest dose in tumor-bearing animals appeared to be well tolerated, with ‹10% reduction in body mass even at the highest dose of 600mg/kg after 4.5 weeks of daily treatment (Supplementary Figure S9d).
Figure 7 SSI-4 has a favorable toxicity profile (a-b) Weight changes in male or female Sprague Dawley rats treated daily with indicated doses of SSI-4 for seven days (n=3 per group). (c-d) Serum profile of indicated enzymes measured on day 8 in male or female Sprague Dawley rats treated daily with indicated doses of SSI-4 for seven days (n=3 per group). (BUN= blood urea nitrogen; AST= aspartate aminotransferase; ALT= alanine aminotransferase; ALK/Phos= alkaline phosphatase).
Sprague dawley rats (6-8 weeks old M/F) were orally gavaged with SS1-4 at the indicated dose daily, for a duration of seven days. For each dose levels 3 male and 3 females were placed on study. Rats were clinically observed and weighed daily. On day 8 rats were euthanatized and blood was collected by cardiac puncture. Blood chemistry was measured by STAT Veterinary laboratory (San Diego CA).

[7] = tested on: A498; experiment: Proliferation dose-response IC50, A498; type: cell-based; conditions: Homo sapiens, proliferative IC50, linear regression modeling of dose-response
Method: as §1, §2

[8] = Pharmacokinetics after oral (PO) and intravenous (IV) administration, serum; type: in vivo, rat; conditions: male, C57BL/6, mouse; for bioavailability: absolute, from AUC0-last and nominal dose; for Cmax / half-life: po
Method: (e) Maximum serum concentration (Cmax) of SSI-4 before the administration of a second dose. (f) AUC curve to infinite time. (g) Summary of pharmacokinetics for SSI-4, where absolute bioavailability (%) is quantitated with AUC0-last and nominal dose.
Pharmacokinetic assessment was performed for SSI-4 administered to fasted male C57BL/6 mice either intravenously (IV) or by oral gavage (PO) in DMSO:PEG400:water (10:70:20) as a clear solution at 5 mg/mL (IV dosing), and 1,3 or 10 mg/mL (respectively for the PO dosing). Serum analysis was performed by LC-MS-MS.

- number of 403 non-mutant kinases bound ([2]; 10 nM): none
- number of 403 non-mutant kinases bound ([2]; 100 nM, the kinase bound is CDKL2): 1
- IC50 [4]: 0.003 µM
- bioavailability ([8]; oral 10 mg/kg): 119%
- bioavailability ([8]; oral 30 mg/kg): 152%
- bioavailability ([8]; oral 100 mg/kg): 212%
- AUC ([8]; oral, 10 mg/kg): 20900 ng·h/mL
- AUC ([8]; oral, 30 mg/kg): 71200 ng·h/mL
- AUC ([8]; oral, 100 mg/kg): 336000 ng·h/mL
- Cmax ([8]; 10 mg/kg): ~4320 ng/mL
- half-life ([8]; 10 mg/kg, oral, 10 mg/kg, read-out: T1/2 (converted)): 3.48 h
- Cmax ([8]; 30 mg/kg): ~15900 ng/mL
- half-life ([8]; 30 mg/kg, oral, 30 mg/kg, read-out: T1/2 (converted)): 2.71 h
- Cmax ([8]; 100 mg/kg): ~43300 ng/mL
- half-life ([8]; 100 mg/kg, oral, 100 mg/kg, read-out: T1/2 (converted)): 3.94 h
- half-life ([8]; 100 mg/kg, range over the oral doses 10, 30, 100 mg/kg, read-out: median serum terminal half-life (T1/2)): 2.71 to 3.94 h
SMILES: CNC(=O)c1ccnc(NC(=O)N2CCC(Oc3ccccc3Cl)CC2)c1 [SSI-4]
- IC50 [1]: 0.009 µM
- decrease in proliferation [3]: > 40%
- IC50 [5]: 0.01 µM
- liver enzymes ([6]; all doses tested, males and females, day 8): No abnormalities
- changes in body weight ([6]; females, all doses tested, daily oral for one week): no significant changes
- changes in body weight ([6]; males, daily oral dose of 300mg/kg for one week): < 10%
- IC50 [7]: 0.009 µM

Source: PMC5787466, “Accelerated bottom-up drug design platform enables the discovery of novel stearoyl-CoA desaturase 1 inhibitors for cancer therapy” (Oncotarget, 2017)
